How the values were obtained:
Format in all cases: in vivo
[1] = test system: giant foxtail (Setaria faberi); assay: Test A preemergence, giant foxtail; conditions: 0 to 100 scale (0 no effect, 100 complete control)
Outline: (§1)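 Greenhouse pre/postemergence test, loam–sand soil. Postemergence plants one- to two-leaf, 2–10 cm. Visual injury rating ~10 d after treatment, 0–100 vs untreated.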

[2] = test system: giant foxtail (Setaria faberi); assay: Test A postemergence, giant foxtail; conditions: 0 to 100 scale (0 no effect, 100 complete control)
Outline: as §1

[3] = test system: morningglory (Ipomoea spp.); assay: Test A postemergence, morningglory; conditions: 0 to 100 scale (0 no effect, 100 complete control)
Outline: as §1

[4] = test system: pigweed (Amaranthus retroflexus); assay: Test A postemergence, pigweed; conditions: 0 to 100 scale (0 no effect, 100 complete control)
Outline: as §1

corn (Zea mays) = assay: Test A postemergence, corn; conditions: 0 to 100 scale (0 no effect, 100 complete control)
Outline: as §1

[5] = test system: blackgrass (Alopecurus myosuroides); assay: Test B preemergence, blackgrass; conditions: scale 0 to 100
Source text: (§2) Seeds of plant species selected from blackgrass (Alopecurus myosuroides), downy bromegrass (Bromus tectorum), green foxtail (Setaria viridis), Italian ryegrass (Lolium multiflorum), wheat (Triticum aestivum), wild oat (Avena fatua), catchweed bedstraw (Galium aparine), bermudagrass (Cynodon dactylon), Surinam grass (Brachiaria decumbens), cocklebur (Xanthium strumarium), corn (Zea mays), large crabgrass (Digitaria sanguinalis), woolly cupgrass (Eriochloa villosa), giant foxtail (Setaria faberii), goosegrass (Eleusine indica), johnsongrass (Sorghum halepense), kochia (Kochia scoparia), lambsquarters (Chenopodium album), morningglory (Ipomoea coccinea), nightshade (eastern black nightshade, Solanum ptycanthum), yellow nutsedge (Cyperus esculentus), pigweed (Amaranthus retroflexus), ragweed (common ragweed, Ambrosia elatior), soybean (Glycine max), sunflower (common oilseed sunflower, Helianthus annuus), Russian thistle (Salsola kali), and velvetleaf (Abutilon theophrasti) were planted into a blend of loam soil and sand and treated preemergence with test compounds formulated in a non-phytotoxic solvent mixture which included a surfactant. Treated plants and controls were maintained in a greenhouse for 13 to 15 days, after which time all species were compared to controls and visually evaluated. Plant response ratings, summarized in Table B, are based on a scale of 0 to 100 where 0 is no effect and 100 is complete control. A dash (-) response means no test result.

[6] = test system: downy bromegrass (Bromus tectorum); assay: Test B preemergence, downy bromegrass; conditions: scale 0 to 100
Source text: as §2

[7] = test system: green foxtail (Setaria viridis); assay: Test B preemergence, green foxtail; conditions: scale 0 to 100
Source text: as §2

[8] = test system: wheat (Triticum aestivum); assay: Test B preemergence, wheat; conditions: Preemergence, scale 0 to 100
Outline: (§3)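 Untreated controls served as reference for visual evaluation at 13 to 15 days. Seeds in a sand–loam blend had been treated preemergence with surfactant-containing non-phytotoxic formulation; scale 0 = no effect, 100 = complete control; dash indicates no result.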

wild oat (Avena fatua) = assay: Test B preemergence, wild oat; conditions: scale 0 to 100
Source text: as §2

[9] = test system: catchweed bedstraw (Galium aparine); assay: Test B preemergence, catchweed bedstraw; conditions: scale 0 to 100
Source text: as §2

[10] = test system: bermudagrass (Cynodon dactylon); assay: Test B preemergence, bermudagrass; conditions: scale 0 to 100
Source text: as §2

[11] = test system: cocklebur (Xanthium strumarium); assay: Test B preemergence, cocklebur; conditions: scale 0 to 100
Source text: as §2

[12] = test system: large crabgrass (Digitaria sanguinalis); assay: Test B preemergence, large crabgrass; conditions: scale 0 to 100
Source text: as §2

[13] = test system: woolly cupgrass (Eriochloa villosa); assay: Test B preemergence, woolly cupgrass; conditions: scale 0 to 100
Source text: as §2

[14] = test system: goosegrass (Eleusine indica); assay: Test B preemergence, goosegrass; conditions: scale 0 to 100
Source text: as §2

[15] = test system: yellow nutsedge (Cyperus esculentus); assay: Test B preemergence, yellow nutsedge; conditions: scale 0 to 100
Source text: as §2

[16] = test system: pigweed (Amaranthus retroflexus); assay: Test B preemergence, pigweed; conditions: scale 0 to 100
Source text: as §2

[17] = test system: ragweed (common ragweed, Ambrosia elatior); assay: Test B preemergence, ragweed; conditions: scale 0 to 100
Source text: as §2

[18] = test system: sunflower (common oilseed sunflower, Helianthus annuus); assay: Test B preemergence, sunflower; conditions: Preemergence, scale 0 to 100
Outline: as §3

[19] = test system: velvetleaf (Abutilon theophrasti); assay: Test B preemergence, velvetleaf; conditions: Preemergence, scale 0 to 100
Outline: as §3

## CC1(C)CC(S(=O)(=O)Cc2c(C(F)(F)F)nc3n(c2=O)CCS3)=NO1 [Compound 6]
[1]; 125 g ai/ha
  Plant response rating, Foxtail, Giant: 80
[1]; 500 g ai/ha
  Plant response rating, Foxtail, Giant: 100
[2]; 125 g ai/ha
  Plant response rating, Foxtail, Giant: 80
[2]; 500 g ai/ha
  Plant response rating, Foxtail, Giant: 90
[3]; 125 g ai/ha
  Plant response rating, Morningglory: 40
[3]; 500 g ai/ha
  Plant response rating, Morningglory: 50
[4]; 125 g ai/ha
  Plant response rating, Pigweed: 50
[4]; 500 g ai/ha
  Plant response rating, Pigweed: 90
Corn (Zea mays); 125 g ai/ha
  Plant response rating, Corn: 0
Corn (Zea mays); 500 g ai/ha
  Plant response rating, Corn: 0
[5]; 16 g ai/ha
  Plant response rating, Blackgrass: 50
[5]; 31 g ai/ha
  Plant response rating, Blackgrass: 80
[5]; 62 g ai/ha
  Plant response rating, Blackgrass: 95
[5]; 125 g ai/ha
  Plant response rating, Blackgrass: 95
[6]; 16 g ai/ha
  Plant response rating, Bromegrass, Downy: 0
[6]; 31 g ai/ha
  Plant response rating, Bromegrass, Downy: 20
[6]; 62 g ai/ha
  Plant response rating, Bromegrass, Downy: 20
[6]; 125 g ai/ha
  Plant response rating, Bromegrass, Downy: 50
[7]; 16 g ai/ha
  Plant response rating, Foxtail, Green: 50
[7]; 31 g ai/ha
  Plant response rating, Foxtail, Green: 50
[7]; 62 g ai/ha
  Plant response rating, Foxtail, Green: 50
[7]; 125 g ai/ha
  Plant response rating, Foxtail, Green: 100
[8]; 16 g ai/ha
  Plant response rating, Wheat: 0
[8]; 31 g ai/ha
  Plant response rating, Wheat: 0
[8]; 62 g ai/ha
  Plant response rating, Wheat: 0
[8]; 125 g ai/ha
  Plant response rating, Wheat: 0
Wild oat (Avena fatua); 16 g ai/ha
  Plant response rating, Oat, Wild: 30
Wild oat (Avena fatua); 31 g ai/ha
  Plant response rating, Oat, Wild: 45
Wild oat (Avena fatua); 62 g ai/ha
  Plant response rating, Oat, Wild: 60
Wild oat (Avena fatua); 125 g ai/ha
  Plant response rating, Oat, Wild: 60
[9]; 16 g ai/ha
  Plant response rating, Galium: 0
[9]; 31 g ai/ha
  Plant response rating, Galium: 50
[9]; 62 g ai/ha
  Plant response rating, Galium: 50
[9]; 125 g ai/ha
  Plant response rating, Galium: 100
[10]; 16 g ai/ha
  Plant response rating, Bermudagrass: 100
[10]; 31 g ai/ha
  Plant response rating, Bermudagrass: 100
[10]; 62 g ai/ha
  Plant response rating, Bermudagrass: 100
[10]; 125 g ai/ha
  Plant response rating, Bermudagrass: 100
[11]; 16 g ai/ha
  Plant response rating, Cocklebur: 0
[11]; 31 g ai/ha
  Plant response rating, Cocklebur: 0
[11]; 62 g ai/ha
  Plant response rating, Cocklebur: 0
[11]; 125 g ai/ha
  Plant response rating, Cocklebur: 0
[12]; 16 g ai/ha
  Plant response rating, Crabgrass, Large: 95
[12]; 31 g ai/ha
  Plant response rating, Crabgrass, Large: 100
[12]; 62 g ai/ha
  Plant response rating, Crabgrass, Large: 100
[12]; 125 g ai/ha
  Plant response rating, Crabgrass, Large: 100
[13]; 16 g ai/ha
  Plant response rating, Cupgrass, Woolly: 60
[13]; 31 g ai/ha
  Plant response rating, Cupgrass, Woolly: 98
[13]; 62 g ai/ha
  Plant response rating, Cupgrass, Woolly: 98
[13]; 125 g ai/ha
  Plant response rating, Cupgrass, Woolly: 100
[14]; 16 g ai/ha
  Plant response rating, Goosegrass: 100
[14]; 31 g ai/ha
  Plant response rating, Goosegrass: 100
[14]; 62 g ai/ha
  Plant response rating, Goosegrass: 100
[14]; 125 g ai/ha
  Plant response rating, Goosegrass: 100
[15]; 16 g ai/ha
  Plant response rating, Nutsedge, Yellow: 0
[15]; 31 g ai/ha
  Plant response rating, Nutsedge, Yellow: 0
[15]; 62 g ai/ha
  Plant response rating, Nutsedge, Yellow: 0
[15]; 125 g ai/ha
  Plant response rating, Nutsedge, Yellow: 45
[16]; 16 g ai/ha
  Plant response rating, Pigweed: 0
[16]; 31 g ai/ha
  Plant response rating, Pigweed: 50
[16]; 62 g ai/ha
  Plant response rating, Pigweed: 100
[16]; 125 g ai/ha
  Plant response rating, Pigweed: 100
[17]; 16 g ai/ha
  Plant response rating, Ragweed: 0
[17]; 31 g ai/ha
  Plant response rating, Ragweed: 0
[17]; 62 g ai/ha
  Plant response rating, Ragweed: 25
[17]; 125 g ai/ha
  Plant response rating, Ragweed: 35
[18]; 16 g ai/ha
  Plant response rating, Sunflower: 0
[18]; 31 g ai/ha
  Plant response rating, Sunflower: 0
[18]; 62 g ai/ha
  Plant response rating, Sunflower: 0
[18]; 125 g ai/ha
  Plant response rating, Sunflower: 0
[19]; 16 g ai/ha
  Plant response rating, Velvetleaf: 0
[19]; 31 g ai/ha
  Plant response rating, Velvetleaf: 0
[19]; 62 g ai/ha
  Plant response rating, Velvetleaf: 0
[19]; 125 g ai/ha
  Plant response rating, Velvetleaf: 0
